This is an account of results in article PMC12315041 (ACS medicinal chemistry letters, 2025).

The assay addresses T1, RIPK1 (receptor-interacting protein kinase 1) (Homo sapiens, UniProt Q13546).
T1 sequence (Q13546 1-671): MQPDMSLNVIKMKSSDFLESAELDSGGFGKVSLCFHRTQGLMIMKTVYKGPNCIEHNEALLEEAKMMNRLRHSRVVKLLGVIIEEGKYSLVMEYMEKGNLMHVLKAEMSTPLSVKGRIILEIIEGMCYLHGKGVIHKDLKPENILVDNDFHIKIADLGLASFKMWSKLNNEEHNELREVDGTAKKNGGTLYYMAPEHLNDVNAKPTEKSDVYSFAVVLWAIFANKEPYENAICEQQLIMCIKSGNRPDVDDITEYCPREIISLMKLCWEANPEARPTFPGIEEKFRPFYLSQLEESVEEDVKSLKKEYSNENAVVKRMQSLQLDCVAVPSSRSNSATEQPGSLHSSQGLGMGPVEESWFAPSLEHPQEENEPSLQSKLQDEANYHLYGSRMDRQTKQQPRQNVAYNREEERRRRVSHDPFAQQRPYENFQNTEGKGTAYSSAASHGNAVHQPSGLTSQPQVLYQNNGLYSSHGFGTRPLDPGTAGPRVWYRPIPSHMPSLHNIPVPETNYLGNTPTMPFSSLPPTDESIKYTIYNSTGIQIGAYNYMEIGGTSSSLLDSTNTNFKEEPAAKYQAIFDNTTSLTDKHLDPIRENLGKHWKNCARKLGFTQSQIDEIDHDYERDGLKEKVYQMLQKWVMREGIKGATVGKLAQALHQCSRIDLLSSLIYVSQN
The experiment in a line: TR-FRET saturation binding. A general note: Time-resolved FRET reads energy transfer from a long-lived donor to a nearby acceptor.

The Kd is the constant that tells how readily two partners part at equilibrium. A high value points to a looser complex. Compound `Nc1ncnc2c1c(-c1ccc3c(c1)CCN3C(=O)Cc1cccc(OC(F)(F)F)c1)cn2CCCNC(=O)CCc1ccc2n1[B-](F)(F)[N+]1=C(c3ccc[nH]3)C=CC1=C2` [T2-BDP-589, T2-BODIPY-589] gave a Kd of 443 nM.
